Reference: patent US10463664B2, “Inhibitors of HSV nucleotidyl transferases and uses therefor” (Saint Louis University, priority 2013, dated 2019)

Assays:
HSV-1 [1] = test: Anti-HSV-1 replication assay in Vero cells, titer by plaque assay; assay type: cell-based, herpes simplex virus 1; conditions: for Anti-HSV-1 Log10 suppression 5 μM / Anti-HSV-1 Log10 suppression 50 μM: moi 0.1, 24 h, relative to DMSO; for Inhibition of HSV-1 replication (in words): primary screening; for Anti-HSV-1 Log10 suppression 5 μM (screening symbol) / Anti-HSV-1 Log10 suppression 50 μM (screening symbol): visual inspection
Description: (§1) Anti-HSV-1 and -HSV-2 Replication Assay. Compounds to be screened were diluted in PBS supplemented to contain 2% newborn calf serum and 1% glutamine, and added in 100 μL, volume to confluent cell monolayers in 24-well cluster plates. Immediately thereafter HSV-1 and HSV-2, diluted in the supplemented PBS medium, were added to the wells in 50 μl volume such that the final concentration of compound was 50 μM and 5 μM and the multiplicity of infection was 0.1. The plates were incubated at 37° C. for 1 hour and then virus-containing inoculum was removed and the wells were washed once in PBS. Compounds, diluted to 50 μM and 5 μM in DMEM supplemented to contain 2% newborn calf serum and 1% each penicillin/streptomycin, were added at 0.5 mL/well. Plates were incubated at 37° C. an additional 23 hr, and then the plates were visually inspected through a phase contrast microscope for cytopathic effect, and for toxic effect. […] The entire contents of each well were collected by scraping. Samples were frozen at −80° C., and then subsequently thawed, sonicated, and infectious virus titer was determined by standard plaque assay on Vero cell monolayers. Because the compounds were dissolved at 10 mM in 100% DMSO, equivalent dilutions of DMSO were added to additional wells as a control for effects of the diluent. Each experiment was repeated once. EC50 values were determined as above except that serial dilutions of the compound to be tested were prepared starting at 50 μM. The inhibitory values were calculated by non-linear curve-fitting in GraphPad Prism.
(§2) Monolayers were microscopically inspected 24 hours post-infection and wells in which more cells were visually healthier than the DMSO-treated controls were collected. Viral titers in the culture lysates were then determined by standard plaque assay on Vero cells. Inhibition of viral replication was categorized as <1 log10 relative to the DMSO-treated control, 1 to 3 log10 suppression, or ≥3 log10 suppression. […] Additionally, four polyoxygenated heterocycle compounds were tested (#128, 138, 139, 140).

HSV-2 [2] = test: Anti-HSV-2 replication assay in Vero cells, titer by plaque assay; assay type: cell-based, herpes simplex virus 2; conditions: for Anti-HSV-2 Log10 suppression 5 μM / Anti-HSV-2 Log10 suppression 50 μM: moi 0.1, 24 h, relative to DMSO; for Anti-HSV-2 Log10 suppression 50 μM (screening symbol) / Anti-HSV-2 Log10 suppression 5 μM (screening symbol): visual inspection; for Inhibition of HSV-2 replication (in words): primary screening
Description: as §1, §2

Vero cells = test: Qualitative (visual) cytotoxicity assessment in primary screening; assay type: cell-based; set-up: key to Vero cell toxicity Qualitative: T: visual evidence of toxicity at 50 μM; conditions: for Vero cell toxicity Qualitative: visual, 50 μM
Description: Compound Cytotoxicity. Compound cytotoxicity was measured both subjectively and quantitatively. Subjective assessments were done by visually inspecting the infected cells at the end of the 24 hours infection window through a phase-contrast microscope.

HBV RNaseH = target: T1, HBV RNaseH (Hepatitis B virus genotype A2 subtype adw2, UniProt P03159); test: Biochemical inhibition of HBV RNaseH (oligonucleotide-directed RNA cleavage assay); conditions: compounds at 60, 20 or 10 μM
T1 construct: One of the inventors recently produced active recombinant HBV RNase H; hexahistidine; made in house; host or cells: E. coli
T1 sequence (P03159 693-845): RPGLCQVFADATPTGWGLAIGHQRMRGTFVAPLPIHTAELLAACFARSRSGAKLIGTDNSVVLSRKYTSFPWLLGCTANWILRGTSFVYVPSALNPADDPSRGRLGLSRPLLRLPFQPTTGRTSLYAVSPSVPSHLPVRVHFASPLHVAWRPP
Description: (§3) Biochemical inhibition of HBV RNaseH and human RNaseH1 activity. […] RNaseH activity was measured using an oligonucleotide-directed RNA cleavage assay in which a DNA oligonucleotide is annealed to an internally ^32P-labeled RNA, the RNA:DNA heteroduplex is incubated with the enzyme to permit cleavage, and then the RNA cleavage products are resolved by electrophoresis and detected by autoradiography. The compounds were included in the reaction mixes at 60, 20, or 10 μM and the amount of the RNA cleavage products in the compound-containing reactions was compared to reactions in which an equivalent concentration of DMSO was added as a vehicle control. The data were quantified using ImageJ.

human RNaseH1 = target: T2, human RNaseH1 (Homo sapiens, UniProt O60930); test: Biochemical inhibition of human RNaseH1 (oligonucleotide-directed RNA cleavage assay); conditions: compounds at 60, 20 or 10 μM
T2 construct: hexahistidine; made in house; host or cells: E. coli
T2 sequence (O60930 1-286): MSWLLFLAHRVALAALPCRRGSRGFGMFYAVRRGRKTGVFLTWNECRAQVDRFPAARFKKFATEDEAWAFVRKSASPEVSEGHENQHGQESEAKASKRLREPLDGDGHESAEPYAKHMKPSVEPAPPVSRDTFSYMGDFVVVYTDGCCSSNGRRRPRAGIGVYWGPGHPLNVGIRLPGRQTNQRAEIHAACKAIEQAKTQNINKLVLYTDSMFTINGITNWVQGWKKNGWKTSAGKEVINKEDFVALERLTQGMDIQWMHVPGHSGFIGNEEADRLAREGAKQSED
Description: as §3

HSV-1 [3] = test: HSV-1 replication inhibition in primary human foreskin fibroblasts; assay type: cell-based, herpes simplex virus 1; set-up: key to Replication inhibition HSV-1 50 μM (not quantified): NQ: Not quantified due to visible toxicity; conditions: HFF cells
Description: as §1
(§4) Inhibition of viral replication was next assessed in human foreskin fibroblasts (HFF) to determine whether NTS inhibitors could block HSV-1 and HSV-2 replication in a physiologically relevant, primary human cell type. […] Viral yields 24 hours post-infection were measured by plaque assay.

HSV-2 [4] = test: HSV-2 replication inhibition in primary human foreskin fibroblasts; assay type: cell-based, herpes simplex virus 2; set-up: key to Replication inhibition HSV-2 50 μM (not quantified): NQ: Not quantified due to visible toxicity; conditions: HFF cells
Description: as §1, §4

[5] = system: primary human foreskin fibroblasts; test: in vitro
Description: Toxicity Assays. Qualitative assessments of cytotoxicity were done visually by inspecting the cells in the primary screening assays. For the quantitative assays, cells were plated in 96-well plates at 1.0×10^4 per well. The next day the compounds were added at 0.78 to 100 μM in a final concentration of 1% (v/v) DMSO, and the cells were incubated for 24 hours under conditions identical to those employed for the viral replication inhibition assays. Mitochondrial toxicity was measured by incubating the cells with 0.25 mg/mL thiazolyl blue tetrazolium bromide (MTT, SigmaAldrich Chemical Co.), the cultures were incubated for 60 min, metabolites were solubilized in acidic isopropanol, and absorbance was read at 570 nm. Cellular lysis was measured by detecting release of intracellular proteases with the CytoTox-Glo assay (Promega) according to the manufacturer's instructions. Percent viability was determined for each compound concentration from the maximal absorbance or luminosity data, and then CC50 values were calculated by non-linear curve fitting using GraphPad Prism.
as §4

[6] = relative to DMSO-treated control
[7] = 50 μM, relative to DMSO-treated control

| Structure (SMILES) | Anti-HSV-1 Log10 suppression 5 μM (HSV-1 [1]) [log10] | Anti-HSV-2 Log10 suppression 5 μM (HSV-2 [2]) [log10] | Vero cell toxicity Qualitative (Vero cells) | Inhibition of HSV-1 replication (in words) (HSV-1 [1]) | Anti-HSV-2 Log10 suppression 50 μM (screening symbol) (HSV-2 [2]) | Inhibition of HSV-2 replication (in words) (HSV-2 [2]) | Anti-HBV RNaseH (HBV RNaseH) | Anti-Human RNaseH1 (human RNaseH1) | Replication inhibition HSV-1 5 μM (HSV-1 [3]; [6]) [log10] | Replication inhibition HSV-1 50 μM (not quantified) (HSV-1 [3]; 50 μM) | Replication inhibition HSV-2 5 μM (HSV-2 [4]; [6]) [log10] | Replication inhibition HSV-2 50 μM (not quantified) (HSV-2 [4]; 50 μM) | CC50 [5] [µM] | also measured |
| --- | --- | --- | --- | --- | --- | --- | --- | --- | --- | --- | --- | --- | --- | --- |
| O=c1cc(NC2CCc3ccccc32)c2cccnc2n1O (stereo not drawn) [Compound 155] | 3.85 | 3.88 | T |  |  |  |  |  |  |  |  |  |  | Anti-HSV-1 Log10 suppression 5 μM (HSV-1 [1]; listed as #155): > 3.84 log10; Anti-HSV-2 Log10 suppression 5 μM (HSV-2 [2]; listed as #155): > 3.84 log10; Cytotoxicity at 50 μM (in words) (Vero cells): significant cytotoxicity |
| Cc1ccc(S(=O)(=O)Oc2cccccc2=O)cc1 [Compound 61] | 0.15 | 0.23 | T | negligible inhibitors | − | negligible inhibitors | − (no inhibition at 60 μM) | ++ (inhibition at 20 μM) | −0.17 | NQ | −0.05 | NQ | 27.8 | Toxicity in HFF cells (in words) [5]: some toxicity |
| CC(C)c1cccc(O)c(=O)c1 [Compound 47, Beta-thujaplicin] | 0.31 | 0.22 |  | negligible inhibitors |  | negligible inhibitors | − (no inhibition at 60 μM) | − (no inhibition at 60 μM) | 0.02 |  | 0.08 |  |  | Anti-HSV-1 Log10 suppression 50 μM (HSV-1 [1]): 1.86 log10; Anti-HSV-2 Log10 suppression 50 μM (HSV-2 [2]): 1.38 log10; Replication inhibition HSV-1 50 μM (HSV-1 [3]; [7]): 5.06 log10; Replication inhibition HSV-2 50 μM (HSV-2 [4]; [7]): 5.16 log10; CC50 ([5]; read-out: Toxicity, CC50 by MTT assay, HFF cells, 24 h): > 100 µM |
| O=Nc1ccc(O)c(=O)cc1 [Compound 50, 5-nitrosotropolone] |  |  | T |  | + |  | − (no inhibition at 60 μM) | − (no inhibition at 60 μM) | 2.92 | NQ^4 | 2.88 | NQ | 40.4 | Toxicity in HFF cells (in words) [5]: some toxicity |
| O=c1cc(NCc2ccccc2)c2cccnc2n1O [Compound 151] | 2.16 | 2.26 | T |  |  |  |  |  |  |  |  |  |  | Anti-HSV-1 Log10 suppression 5 μM (HSV-1 [1]; listed as #151): > 2.15 log10; Anti-HSV-2 Log10 suppression 5 μM (HSV-2 [2]; listed as #151): > 2.15 log10; Cytotoxicity at 50 μM (in words) (Vero cells): significant cytotoxicity |
| COc1cc2c(cc1Cc1cccc(Cl)c1F)c(=O)c(C(=O)O)cn2[C@H](CO)C(C)C [Compound 10, Elvitegravir, reference compound] |  |  | T |  | − |  | − (no inhibition at 60 μM) | − (no inhibition at 60 μM) |  |  |  |  |  | Anti-HSV-1 Log10 suppression 5 μM (screening symbol) (HSV-1 [1]): −; Anti-HSV-1 Log10 suppression 50 μM (screening symbol) (HSV-1 [1]): −; Anti-HSV-2 Log10 suppression 5 μM (screening symbol) (HSV-2 [2]): − |
| O=C(Nc1ccc(O)c(=O)cc1)c1ccccc1 [Compound 52] | 0.07 | 0.10 |  | negligible inhibitors |  | negligible inhibitors | − (no inhibition at 60 μM) | − (no inhibition at 60 μM) | 0.10 | NQ | −0.01 | NQ | > 100 | Anti-HSV-1 Log10 suppression 50 μM (HSV-1 [1]): 2.02 log10; Anti-HSV-2 Log10 suppression 50 μM (HSV-2 [2]): 1.34 log10 |
| CCOC(=O)c1sc(NC(=O)CSc2nccc(C)n2)c(C#N)c1C [Compound 27] |  |  | T |  | − |  | − (no inhibition at 60 μM) |  |  |  |  |  |  | Anti-HSV-1 Log10 suppression 5 μM (screening symbol) (HSV-1 [1]): −; Anti-HSV-1 Log10 suppression 50 μM (screening symbol) (HSV-1 [1]): −; Anti-HSV-2 Log10 suppression 5 μM (screening symbol) (HSV-2 [2]): − |
